The target in test [1] is Casein kinase I isoform gamma-3 (Homo sapiens) (UniProt Q9Y6M4). As to the kind of experiment: Selectivity interaction (KinomeScan (DiscoverX)) EUB0000595a CSNK1G3. Particulars: at 10 µM.
The target of test [2] is T1, Mitogen-activated protein kinase 12 (Homo sapiens) (UniProt P53778).
T1 sequence (whole entry): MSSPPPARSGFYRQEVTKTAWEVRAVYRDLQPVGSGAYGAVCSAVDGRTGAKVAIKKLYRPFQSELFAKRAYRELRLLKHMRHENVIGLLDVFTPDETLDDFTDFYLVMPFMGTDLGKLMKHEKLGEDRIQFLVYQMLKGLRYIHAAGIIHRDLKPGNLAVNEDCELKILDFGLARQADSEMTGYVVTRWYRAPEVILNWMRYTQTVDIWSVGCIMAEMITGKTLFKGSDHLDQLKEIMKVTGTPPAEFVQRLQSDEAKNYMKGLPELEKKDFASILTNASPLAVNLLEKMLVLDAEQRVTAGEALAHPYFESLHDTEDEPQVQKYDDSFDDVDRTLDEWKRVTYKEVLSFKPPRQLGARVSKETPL
Particulars: at 10 µM.

The target in test [3] is Protein kinase C delta type (Homo sapiens) (UniProt Q05655). As to the kind of experiment: Selectivity interaction (KinomeScan (DiscoverX)) EUB0000695a PRKCD. Particulars: at 100 nM.
The target in test [4] is T2, Mitogen-activated protein kinase kinase kinase 2 (Homo sapiens) (UniProt Q9Y2U5).
T2 sequence (whole entry): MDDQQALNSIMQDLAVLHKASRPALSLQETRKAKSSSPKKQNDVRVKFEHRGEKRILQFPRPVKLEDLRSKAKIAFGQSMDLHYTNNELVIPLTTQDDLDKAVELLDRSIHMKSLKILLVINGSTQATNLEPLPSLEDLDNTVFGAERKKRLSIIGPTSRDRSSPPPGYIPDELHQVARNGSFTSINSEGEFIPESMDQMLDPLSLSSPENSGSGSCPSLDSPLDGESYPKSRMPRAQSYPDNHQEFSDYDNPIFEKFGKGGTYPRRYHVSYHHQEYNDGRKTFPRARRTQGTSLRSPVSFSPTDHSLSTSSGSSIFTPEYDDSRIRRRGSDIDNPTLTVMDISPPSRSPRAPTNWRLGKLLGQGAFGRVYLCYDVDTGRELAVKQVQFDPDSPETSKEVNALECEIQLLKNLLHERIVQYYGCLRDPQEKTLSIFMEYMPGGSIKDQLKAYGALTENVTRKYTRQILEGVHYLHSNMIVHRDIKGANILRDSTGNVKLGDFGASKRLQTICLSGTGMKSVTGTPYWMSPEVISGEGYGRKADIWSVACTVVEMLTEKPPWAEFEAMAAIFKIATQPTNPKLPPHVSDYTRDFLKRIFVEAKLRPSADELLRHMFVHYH
In words: Selectivity interaction (ActivX KiNativ screen (kinase selectivity in THP-1 cell lysates)) EUB0000639a MAP3K2. Particulars: lysate, at 1 µM. Format: subcellular.

Test [5] concerns the target Serine/threonine-protein kinase 24 (Homo sapiens) (UniProt Q9Y6E0). In words: Selectivity interaction (Kinase panel (DSF assay)) EUB0001559a STK24.
Test [6] has as its target Cyclin-dependent kinase 17 (Homo sapiens) (UniProt Q00537). As to the kind of experiment: Selectivity interaction (KinomeScan (DiscoverX)) EUB0000045b CDK17.
Test [7] addresses Fibroblast growth factor receptor 1 (Homo sapiens, UniProt P11362). As to the kind of experiment: Selectivity interaction (Kinase panel (literature)) EUB0001199aCl FGFR1. As to conditions: at 1 µM.
Test [8] concerns Phosphatidylinositol 4,5-bisphosphate 3-kinase catalytic subunit alpha isoform (Homo sapiens), P42336 [E545K]. As to the kind of experiment: (§1) Selectivity interaction (Ambit KINOMEscan) EUB0000092b PIK3CA. Particulars: at 10 µM.
The test system of test [9] is Phosphatidylinositol 4,5-bisphosphate 3-kinase catalytic subunit alpha isoform (Homo sapiens), P42336 [C420R]. The test is described as §1. As to conditions: at 10 µM.
Test [10] has as its target Bromodomain-containing protein 4 (Homo sapiens, UniProt O60885).
The target in test [11] is T3, MAP kinase-activated protein kinase 5 (Homo sapiens) (UniProt Q8IW41).
T3 sequence (whole entry): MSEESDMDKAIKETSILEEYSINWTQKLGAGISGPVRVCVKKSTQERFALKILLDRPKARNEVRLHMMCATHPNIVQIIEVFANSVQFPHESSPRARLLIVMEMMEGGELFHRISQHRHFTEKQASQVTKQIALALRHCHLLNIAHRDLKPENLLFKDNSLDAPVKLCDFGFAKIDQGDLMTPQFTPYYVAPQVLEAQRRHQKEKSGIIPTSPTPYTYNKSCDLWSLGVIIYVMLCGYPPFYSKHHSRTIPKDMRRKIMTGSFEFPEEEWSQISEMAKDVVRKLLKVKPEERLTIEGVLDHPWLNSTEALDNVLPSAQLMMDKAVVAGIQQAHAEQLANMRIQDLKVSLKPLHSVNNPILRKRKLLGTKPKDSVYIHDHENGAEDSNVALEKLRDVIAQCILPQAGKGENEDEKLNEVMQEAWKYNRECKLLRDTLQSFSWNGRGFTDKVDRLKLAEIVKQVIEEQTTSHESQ
In words: Selectivity interaction (Millipore kinase profiler) EUB0000124b MAPKAPK5. As to conditions: at 10 µM.

Sequence of Cyclin-dependent kinase 17 (Homo sapiens) (Q00537 whole entry, looked up): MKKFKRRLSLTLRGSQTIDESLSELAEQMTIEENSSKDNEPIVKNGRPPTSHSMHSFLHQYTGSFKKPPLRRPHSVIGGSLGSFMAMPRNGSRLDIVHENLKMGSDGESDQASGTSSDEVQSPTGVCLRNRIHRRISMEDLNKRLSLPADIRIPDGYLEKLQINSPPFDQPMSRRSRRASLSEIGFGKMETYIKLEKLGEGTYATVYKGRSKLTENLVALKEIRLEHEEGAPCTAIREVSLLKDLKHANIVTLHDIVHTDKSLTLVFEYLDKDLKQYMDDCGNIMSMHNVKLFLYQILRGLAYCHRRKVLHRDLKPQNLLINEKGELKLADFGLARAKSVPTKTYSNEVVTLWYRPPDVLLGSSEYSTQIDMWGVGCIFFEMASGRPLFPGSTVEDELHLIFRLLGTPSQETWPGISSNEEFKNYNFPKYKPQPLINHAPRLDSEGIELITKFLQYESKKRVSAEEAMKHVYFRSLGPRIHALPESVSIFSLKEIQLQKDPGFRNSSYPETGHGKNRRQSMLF
Sequence of Serine/threonine-protein kinase 24 (Homo sapiens) (Q9Y6E0 whole entry, looked up): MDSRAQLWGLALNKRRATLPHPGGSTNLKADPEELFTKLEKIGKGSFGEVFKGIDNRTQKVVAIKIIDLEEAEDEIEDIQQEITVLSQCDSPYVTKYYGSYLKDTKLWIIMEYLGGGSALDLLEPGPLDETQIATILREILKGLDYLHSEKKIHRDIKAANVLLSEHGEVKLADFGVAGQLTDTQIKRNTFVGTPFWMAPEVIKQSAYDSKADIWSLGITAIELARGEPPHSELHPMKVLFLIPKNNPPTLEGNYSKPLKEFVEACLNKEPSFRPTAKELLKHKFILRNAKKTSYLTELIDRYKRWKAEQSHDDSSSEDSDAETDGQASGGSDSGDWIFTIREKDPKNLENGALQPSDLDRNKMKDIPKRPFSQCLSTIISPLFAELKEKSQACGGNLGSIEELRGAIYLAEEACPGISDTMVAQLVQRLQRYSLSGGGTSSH
Sequence of Phosphatidylinositol 4,5-bisphosphate 3-kinase catalytic subunit alpha isoform (Homo sapiens), P42336 [E545K] (P42336 whole entry E545K, canonical isoform): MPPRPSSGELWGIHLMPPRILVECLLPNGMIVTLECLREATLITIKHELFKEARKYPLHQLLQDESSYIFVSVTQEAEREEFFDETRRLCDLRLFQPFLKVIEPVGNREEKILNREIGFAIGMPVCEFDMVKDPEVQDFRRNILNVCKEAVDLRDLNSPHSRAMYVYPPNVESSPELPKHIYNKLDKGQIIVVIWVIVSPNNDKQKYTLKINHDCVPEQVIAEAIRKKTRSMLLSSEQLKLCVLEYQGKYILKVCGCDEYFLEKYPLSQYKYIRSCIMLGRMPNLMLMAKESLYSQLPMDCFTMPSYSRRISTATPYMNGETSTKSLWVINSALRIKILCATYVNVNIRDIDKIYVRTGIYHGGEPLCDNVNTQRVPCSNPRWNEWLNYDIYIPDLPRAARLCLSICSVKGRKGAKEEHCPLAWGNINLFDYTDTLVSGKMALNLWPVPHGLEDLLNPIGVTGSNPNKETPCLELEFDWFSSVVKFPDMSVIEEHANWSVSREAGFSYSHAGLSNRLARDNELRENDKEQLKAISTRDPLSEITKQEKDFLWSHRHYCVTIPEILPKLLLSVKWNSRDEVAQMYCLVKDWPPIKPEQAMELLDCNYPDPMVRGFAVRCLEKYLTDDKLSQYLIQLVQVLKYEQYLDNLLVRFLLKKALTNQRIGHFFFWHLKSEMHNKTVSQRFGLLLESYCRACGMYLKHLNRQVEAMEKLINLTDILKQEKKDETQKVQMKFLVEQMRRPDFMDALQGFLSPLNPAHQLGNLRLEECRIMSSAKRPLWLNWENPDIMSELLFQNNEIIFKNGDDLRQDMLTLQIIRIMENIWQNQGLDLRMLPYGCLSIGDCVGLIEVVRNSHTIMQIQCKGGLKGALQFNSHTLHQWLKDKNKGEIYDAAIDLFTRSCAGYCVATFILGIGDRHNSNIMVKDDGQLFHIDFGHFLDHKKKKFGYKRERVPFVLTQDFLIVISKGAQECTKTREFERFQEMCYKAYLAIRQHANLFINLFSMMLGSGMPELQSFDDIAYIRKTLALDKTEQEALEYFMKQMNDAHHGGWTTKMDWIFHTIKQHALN
Sequence of Fibroblast growth factor receptor 1 (P11362 22-822 limits assumed): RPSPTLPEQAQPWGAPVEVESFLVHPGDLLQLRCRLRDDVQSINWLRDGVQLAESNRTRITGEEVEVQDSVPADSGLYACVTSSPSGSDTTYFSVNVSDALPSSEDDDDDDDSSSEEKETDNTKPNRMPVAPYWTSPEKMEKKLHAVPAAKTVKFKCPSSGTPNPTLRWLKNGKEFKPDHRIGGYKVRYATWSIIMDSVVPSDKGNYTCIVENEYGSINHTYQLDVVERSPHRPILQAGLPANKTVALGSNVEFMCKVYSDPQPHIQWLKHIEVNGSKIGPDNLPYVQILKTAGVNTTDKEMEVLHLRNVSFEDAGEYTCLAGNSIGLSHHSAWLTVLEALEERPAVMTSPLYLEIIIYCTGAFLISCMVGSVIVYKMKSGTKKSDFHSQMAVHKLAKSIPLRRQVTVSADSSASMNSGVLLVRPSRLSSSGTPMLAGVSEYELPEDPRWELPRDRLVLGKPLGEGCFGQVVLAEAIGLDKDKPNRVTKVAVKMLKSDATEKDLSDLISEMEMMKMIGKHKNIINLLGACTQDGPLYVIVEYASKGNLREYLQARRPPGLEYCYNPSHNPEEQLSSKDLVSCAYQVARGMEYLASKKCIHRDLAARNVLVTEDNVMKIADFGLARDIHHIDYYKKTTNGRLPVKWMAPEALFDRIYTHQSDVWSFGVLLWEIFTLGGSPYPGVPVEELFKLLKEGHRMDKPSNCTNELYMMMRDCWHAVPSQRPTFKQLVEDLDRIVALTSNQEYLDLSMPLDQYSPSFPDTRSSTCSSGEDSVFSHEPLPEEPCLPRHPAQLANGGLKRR
Sequence of Casein kinase I isoform gamma-3 (Homo sapiens) (Q9Y6M4 whole entry, looked up, canonical isoform): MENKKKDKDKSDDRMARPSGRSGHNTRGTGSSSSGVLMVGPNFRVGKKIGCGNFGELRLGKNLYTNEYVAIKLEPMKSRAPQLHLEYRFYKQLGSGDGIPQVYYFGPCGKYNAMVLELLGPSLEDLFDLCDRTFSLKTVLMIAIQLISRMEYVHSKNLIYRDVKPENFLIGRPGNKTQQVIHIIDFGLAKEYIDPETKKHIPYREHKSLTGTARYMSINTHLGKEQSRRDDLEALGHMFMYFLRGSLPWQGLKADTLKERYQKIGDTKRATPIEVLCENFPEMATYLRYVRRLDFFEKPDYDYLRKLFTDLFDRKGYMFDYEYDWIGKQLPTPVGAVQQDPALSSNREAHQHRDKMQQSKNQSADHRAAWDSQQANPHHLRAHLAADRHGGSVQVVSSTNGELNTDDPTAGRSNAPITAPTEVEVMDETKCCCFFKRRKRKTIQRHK
Sequence of Phosphatidylinositol 4,5-bisphosphate 3-kinase catalytic subunit alpha isoform (Homo sapiens), P42336 [C420R] (P42336 whole entry C420R, canonical isoform): as the sequence (P42336 whole entry E545K, canonical isoform) above, with C420R, K545E counted along it
Sequence of Protein kinase C delta type (Homo sapiens) (Q05655 whole entry, looked up): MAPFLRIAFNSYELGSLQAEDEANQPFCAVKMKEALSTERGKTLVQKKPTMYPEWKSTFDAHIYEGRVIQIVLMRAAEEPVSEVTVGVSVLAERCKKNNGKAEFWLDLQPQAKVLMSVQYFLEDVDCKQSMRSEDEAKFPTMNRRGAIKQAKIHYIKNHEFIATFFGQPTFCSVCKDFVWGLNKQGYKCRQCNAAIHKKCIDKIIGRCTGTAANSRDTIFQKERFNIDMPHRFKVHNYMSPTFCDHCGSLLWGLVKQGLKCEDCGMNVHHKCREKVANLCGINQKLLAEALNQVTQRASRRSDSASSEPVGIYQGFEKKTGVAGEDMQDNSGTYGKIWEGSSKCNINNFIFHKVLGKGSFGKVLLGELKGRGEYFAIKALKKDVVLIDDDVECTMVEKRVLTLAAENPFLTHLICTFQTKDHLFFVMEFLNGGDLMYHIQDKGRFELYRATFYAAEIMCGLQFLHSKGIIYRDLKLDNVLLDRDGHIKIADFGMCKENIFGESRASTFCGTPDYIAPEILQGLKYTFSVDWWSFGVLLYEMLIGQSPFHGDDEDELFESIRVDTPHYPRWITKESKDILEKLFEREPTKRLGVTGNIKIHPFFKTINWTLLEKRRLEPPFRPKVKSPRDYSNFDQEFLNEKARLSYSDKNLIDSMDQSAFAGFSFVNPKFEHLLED

As for `COCC(=O)NC/C=C/c1ccc2ncnc(Nc3ccc(Oc4ccc(C)nc4)c(C)c3)c2c1` [CP-724714], the % of control in test [1] is 100%.

`CCN(CC)CCCCNc1ncc2cc(-c3cc(OC)cc(OC)c3)c(NC(=O)NC(C)(C)C)nc2n1` returned a % of control in test [2] of 100%.

`Cc1cc(F)c(C(=O)Nc2cccc(-c3nncn3C(C)C)n2)cc1-n1cnc(C2CC2)c1` displayed a % of control in test [3] of 100%.

With `CC[C@@H]1[C@H](F)C(=O)N[C@@H]1COc1nccc2cc(C(N)=O)c(OC)cc12` [ZIMLOVISERTIB], the % of inhibition in test [4] is -7.6%.

Take `CN(C(=O)c1cnn2cccnc12)c1cc2c(cc1N1CCOCC1)C(=O)N(C[C@@H](F)C(C)(C)O)C2`: in [5], the dTM was -0.3 K.

As to `C=CC(=O)Nc1cc(-n2c(=O)ccc3cnc4ccc(-c5ccc(NS(C)(=O)=O)cc5)cc4c32)ccc1C`, the % of control in test [6] (at 1 µM) came out at 100%; in [6] (at 10 µM) it was 95%.

For `CN1Cc2nccc(-c3cn(C)nc3-c3ccc(F)cc3)c2C1=O`, in test [7], the % of inhibition was determined as 3%.

As for `CCC(=O)N1CCN(c2ccc(-n3c(=O)ccc4cnc5ccc(-c6cnc7ccccc7c6)cc5c43)cc2C(F)(F)F)CC1`, the % of control was 0.6% in test [8] and 0.7% in test [9].

`CC(=O)Nc1cccc(-n2c(=O)n(C3CC3)c(=O)c3c(Nc4ccc(I)cc4F)n(C)c(=O)c(C)c32)c1` came in with a Kdapp in [10] of 1920 nM. Besides, the % of control in test [11] was 91%.

These data come from ChEMBL document CHEMBL5465560, “Selectivity Literature for EUbOPEN Chemogenomic Library” (2024).
